SMILES strings stand for the structures.

The first assay concerns the target α1β2γ2 GABAA receptor (Homo sapiens (Human), UniProt P14867+P47870). The experiment in a line: Patch clamp electrophysiology of recombinant α1β2γ2 GABAA receptors in LTK cells. It is filed as cell-based. The following applies: LTK, 10 μM compound, Qpatch, Ltk cells, GABA EC20 2 μM; read-out: α1β2γ2 GABA Qpatch in Ltk (Efficacy at 10 μm). As to the method: (§1) Cellular electrophysiology is used to measure the pharmacological properties of our GABAA receptor modulators in heterologous cell systems. Each compound is tested for its ability to affect GABA mediated currents at a submaximal agonist dose (GABA EC20=2 μM). LTK cells are stably transfected with the α1β2γ2 subunits of the GABA receptor and CHO cells are transiently transfected with the α4β3δ subunits via the Lipofecatamine method. Cells were passaged at a confluence of about 50-80% and then seeded onto 35 mm sterile culture dishes containing 2 ml culture complete medium without antibiotics or antimycotics. Confluent clusters of cells are electrically coupled (Pritchett et al., 1988). Because responses in distant cells are not adequately voltage clamped and because of uncertainties about the extent of coupling (Verdoorn et al., 1990), cells were cultivated at a density that enables the recording of single cells (without visible connections to other cells).
(§2) Whole cell currents were measured with HEKA EPC-10 amplifiers using PatchMaster software or by using the high throughput QPatch platform (Sophion). Bath solution for all experiments contained (in mM): NaCl 137 mM, KCl 4 mM, CaCl2 1.8 mM, MgCl2 1 mM, HEPES 10 mM, D-Glucose 10 mM, pH (NaOH) 7.4. In some cases 0.005% cremophor was also added. Intracellular (pipette) solution contained: KCl 130 mM, MgCl2 1 mM, Mg-ATP 5 mM, HEPES 10 mM, EGTA 5 mM, pH 7.2. During experiments, cells and solutions were maintained at room temperature (19° C.-30° C.). For manual patch clamp recordings, cell culture dishes were placed on the dish holder of the microscope and continuously perfused (1 ml/min) with bath solution. After formation of a Gigaohm seal between the patch electrodes and the cell (pipette resistance range: 2.5 MΩ-6.0 MΩ; seal resistance range: >1 GΩ) the cell membrane across the pipette tip was ruptured to assure electrical access to the cell interior (whole-cell patch-configuration). For experiments using the QPatch system, cells were transferred as suspension to the QPatch system in the bath solution and automated whole cell recordings were performed.
(§3) Cells were voltage clamped at a holding potential of −80 mV. For the analysis of test articles, GABA receptors were stimulated by 2 μM GABA after sequential pre-incubation of increasing concentrations of the test article. Pre-incubation duration was 30 s and the duration of the GABA stimulus was 2 s. Test articles were dissolved in DMSO to form stock solutions (10 mM). Test articles were diluted to 0.01, 0.1, 1, and 10 μM in bath solution. All concentrations of test articles were tested on each cell. The relative percentage potentiation was defined as the peak amplitude in response to GABA EC20 in the presence of the test article divided by the peak amplitude in response to GABA EC20 alone, multiplied by 100.
On the technique in general: Patch clamp records ionic current or voltage across a cell membrane.
On to `C[C@@]1(O)CC[C@H]2[C@H](CC[C@@H]3[C@@H]2CC[C@]2(C)[C@@H](C(=O)Cn4nc5ccccc5n4)CC[C@@H]32)C1` [SA-2], for which the activity at 10 µM lay within 100 to 500%.

As for `C[C@]12CC[C@H]3[C@@H](CC[C@H]4C[C@@](O)(CF)CC[C@@H]43)[C@@H]1CC[C@@H]2C(=O)Cn1nnc2cnccc21` [SB-14], the activity at 10 µM fell in the range of 10 to 100%.

`C[C@]12CC[C@H]3[C@@H](CC[C@H]4C[C@@](O)(CF)CC[C@@H]43)[C@@H]1CC[C@@H]2C(=O)Cn1cc2ncccc2n1` [SB-16]: the activity at 10 µM was in the range of 100 to 500%.

Take `C[C@]12CC[C@H]3[C@@H](CC[C@H]4C[C@@](O)(CF)CC[C@@H]43)[C@@H]1CC[C@@H]2C(=O)Cn1ncc2ncccc21` [SB-17]: the activity at 10 µM lay within 10 to 100%.

As to `C[C@]12CC[C@H]3[C@@H](CC[C@H]4C[C@@](O)(CF)CC[C@@H]43)[C@@H]1CC[C@@H]2C(=O)Cn1cc2ccncc2n1` [SB-18], the activity at 10 µM is above 500%.

For the compound `C[C@]12CC[C@H]3[C@@H](CC[C@H]4C[C@@](O)(CF)CC[C@@H]43)[C@@H]1CC[C@@H]2C(=O)Cn1ncc2ccncc21` [SB-19], the activity at 10 µM was 100 to 500%.

For the compound `C[C@]12CC[C@H]3[C@@H](CC[C@H]4C[C@@](O)(CF)CC[C@@H]43)[C@@H]1CC[C@@H]2C(=O)Cn1nnc2ccncc21` [SB-26], the activity at 10 µM lay within 10 to 100%.

Consider `CC[C@@]1(O)CC[C@H]2[C@@H](CC[C@@H]3[C@@H]2CC[C@]2(C)[C@@H](C(=O)Cn4cc5ncccc5n4)CC[C@@H]32)C1` [SB-29], for which the activity at 10 µM lay in the range of 100 to 500%.

Turning to `CC[C@@]1(O)CC[C@H]2[C@@H](CC[C@@H]3[C@@H]2CC[C@]2(C)[C@@H](C(=O)Cn4ncc5ncccc54)CC[C@@H]32)C1` [SB-30], the activity at 10 µM lay within 100 to 500%.

Consider `CC[C@@]1(O)CC[C@H]2[C@@H](CC[C@@H]3[C@@H]2CC[C@]2(C)[C@@H](C(=O)Cn4ncc5ccncc54)CC[C@@H]32)C1` [SB-32], for which the activity at 10 µM was in the range of 100 to 500%.

Turning to `CC[C@@]1(O)CC[C@H]2[C@@H](CC[C@@H]3[C@@H]2CC[C@]2(C)[C@@H](C(=O)Cn4nc5ccncc5n4)CC[C@@H]32)C1` [SB-34], the activity at 10 µM was above 500%.

`CC[C@@]1(O)CC[C@H]2[C@@H](CC[C@@H]3[C@@H]2CC[C@]2(C)[C@@H](C(=O)Cn4nnc5ccccc54)CC[C@@H]32)C1` [SB-35]: the activity at 10 µM lay within 10 to 100%.

Take `CC[C@@]1(O)CC[C@H]2[C@@H](CC[C@@H]3[C@@H]2CC[C@]2(C)[C@@H](C(=O)Cn4nc5ccccc5n4)CC[C@@H]32)C1` [SB-36]: the activity at 10 µM lay within 100 to 500%.

`CC[C@@]1(O)CC[C@H]2[C@@H](CC[C@@H]3[C@@H]2CC[C@]2(C)[C@@H](C(=O)Cn4nc5ccc(F)cc5n4)CC[C@@H]32)C1` [SB-39]: the activity at 10 µM lay in the range of 10 to 100%.

With `COC[C@@]1(O)CC[C@H]2[C@@H](CC[C@@H]3[C@@H]2CC[C@]2(C)[C@@H](C(=O)Cn4nc5ccc(F)cc5n4)CC[C@@H]32)C1` [SB-41], the activity at 10 µM is 10 to 100%.

In the case of `COC[C@@]1(O)CC[C@H]2[C@@H](CC[C@@H]3[C@@H]2CC[C@]2(C)[C@@H](C(=O)Cn4nnc5cnccc54)CC[C@@H]32)C1` [SB-43], the activity at 10 µM fell in the range of 100 to 500%.

For the compound `COC[C@@]1(O)CC[C@H]2[C@@H](CC[C@@H]3[C@@H]2CC[C@]2(C)[C@@H](C(=O)Cn4nc5ccncc5n4)CC[C@@H]32)C1` [SB-44], the activity at 10 µM was above 500%.

Turning to `COC[C@@]1(O)CC[C@H]2[C@@H](CC[C@@H]3[C@@H]2CC[C@]2(C)[C@@H](C(=O)Cn4ncc5ccncc54)CC[C@@H]32)C1` [SB-46], the activity at 10 µM was 100 to 500%.

Consider `COC[C@@]1(O)CC[C@H]2[C@@H](CC[C@@H]3[C@@H]2CC[C@]2(C)[C@@H](C(=O)Cn4cc5ncccc5n4)CC[C@@H]32)C1` [SB-47], for which the activity at 10 µM is above 500%.

On to `COC[C@@]1(O)CC[C@H]2[C@@H](CC[C@@H]3[C@@H]2CC[C@]2(C)[C@@H](C(=O)Cn4ncc5ncccc54)CC[C@@H]32)C1` [SB-48], for which the activity at 10 µM is above 500%.

For `COC[C@@]1(O)CC[C@H]2[C@@H](CC[C@@H]3[C@@H]2CC[C@]2(C)[C@@H](C(=O)Cn4nnc5ccccc54)CC[C@@H]32)C1` [SB-49], the activity at 10 µM was in the range of 100 to 500%.

For `CCOC[C@@]1(O)CC[C@H]2[C@@H](CC[C@@H]3[C@@H]2CC[C@]2(C)[C@@H](C(=O)Cn4nnc5ccccc54)CC[C@@H]32)C1` [SB-52], the activity at 10 µM was in the range of 100 to 500%.

Take `CCOC[C@@]1(O)CC[C@H]2[C@@H](CC[C@@H]3[C@@H]2CC[C@]2(C)[C@@H](C(=O)Cn4nc5ccccc5n4)CC[C@@H]32)C1` [SB-53]: the activity at 10 µM fell in the range of 10 to 100%.

Take `CCOC[C@@]1(O)CC[C@H]2[C@@H](CC[C@@H]3[C@@H]2CC[C@]2(C)[C@@H](C(=O)Cn4ncc5ncccc54)CC[C@@H]32)C1` [SB-54]: the activity at 10 µM lay within 100 to 500%.

As for `CCOC[C@@]1(O)CC[C@H]2[C@@H](CC[C@@H]3[C@@H]2CC[C@]2(C)[C@@H](C(=O)Cn4cc5ncccc5n4)CC[C@@H]32)C1` [SB-55], the activity at 10 µM is 10 to 100%.

On to `CCOC[C@@]1(O)CC[C@H]2[C@@H](CC[C@@H]3[C@@H]2CC[C@]2(C)[C@@H](C(=O)Cn4ncc5ccncc54)CC[C@@H]32)C1` [SB-56], for which the activity at 10 µM lay within 10 to 100%.

Take `CCOC[C@@]1(O)CC[C@H]2[C@@H](CC[C@@H]3[C@@H]2CC[C@]2(C)[C@@H](C(=O)Cn4cc5ccncc5n4)CC[C@@H]32)C1` [SB-57]: the activity at 10 µM was in the range of 100 to 500%.

`CCOC[C@@]1(O)CC[C@H]2[C@@H](CC[C@@H]3[C@@H]2CC[C@]2(C)[C@@H](C(=O)Cn4nc5ccncc5n4)CC[C@@H]32)C1` [SB-59]: the activity at 10 µM was in the range of 100 to 500%.

`CCOC[C@@]1(O)CC[C@H]2[C@@H](CC[C@@H]3[C@@H]2CC[C@]2(C)[C@@H](C(=O)Cn4nc5ccc(F)cc5n4)CC[C@@H]32)C1` [SB-60]: the activity at 10 µM was 10 to 100%.

For the compound `COc1ccc2nn(CC(=O)[C@H]3CC[C@H]4[C@@H]5CC[C@H]6C[C@@](O)(CF)CC[C@@H]6[C@H]5CC[C@]34C)nc2c1` [SG-21], the activity at 10 µM fell in the range of 10 to 100%.

Consider `COc1ccc2nnn(CC(=O)[C@H]3CC[C@H]4[C@@H]5CC[C@H]6C[C@@](O)(CF)CC[C@@H]6[C@H]5CC[C@]34C)c2c1` [SG-22], for which the activity at 10 µM lay in the range of 100 to 500%.

As for `COc1ccc2c(c1)nnn2CC(=O)[C@H]1CC[C@H]2[C@@H]3CC[C@H]4C[C@@](O)(CF)CC[C@@H]4[C@H]3CC[C@]12C` [SG-23], the activity at 10 µM fell in the range of 10 to 100%.

In the case of `C[C@]12CC[C@H]3[C@@H](CC[C@H]4C[C@@](O)(CF)CC[C@@H]43)[C@@H]1CC[C@@H]2C(=O)Cn1nc2ccc(F)cc2n1` [SG-24], the activity at 10 µM was in the range of 100 to 500%.

Staying with this assay, now noted: LTK; potentiation of GABA EC20 (2 μM) current; read-out: GABAa alpha1 (α1β2γ2) Emax (%).
On to `C[C@@]1(O)CC[C@H]2[C@H](CC[C@@H]3[C@@H]2CC[C@]2(C)[C@@H](C(=O)Cn4nc5ccccc5n4)CC[C@@H]32)C1` [SA-2], for which the Emax (in general, the greatest response seen or fitted, relative to the assay's reference) was in the range of 0 to 500%.

The same assay, now with this note: potentiation of GABA EC20 (2 μM) current; read-out: GABAa alpha1 (α1β2γ2)EC50.
On to `C[C@@]1(O)CC[C@H]2[C@H](CC[C@@H]3[C@@H]2CC[C@]2(C)[C@@H](C(=O)Cn4nc5ccccc5n4)CC[C@@H]32)C1` [SA-2], for which the EC50 (usually the concentration needed to bring the measured effect to its halfway point) lay within 500 to 1000 nM.

Another assay deals with α4β3δ GABAA receptor (Homo sapiens (Human), UniProt P28472+P48169). Description: Patch clamp electrophysiology of recombinant α4β3δ GABAA receptors in CHO cells. It is filed as cell-based. The following applies: 10 μM compound, manual patch, GABA EC20 2 μM, read-out: α4β3δ GABA Manual Patch in CHO (Efficacy at 10 μM). As to the method: as §1, §2, §3
Turning to `C[C@@]1(O)CC[C@H]2[C@H](CC[C@@H]3[C@@H]2CC[C@]2(C)[C@@H](C(=O)Cn4nc5ccccc5n4)CC[C@@H]32)C1` [SA-2], the activity at 10 µM is above 500%.

As to `COc1ccc2nn(CC(=O)[C@H]3CC[C@H]4[C@@H]5CC[C@@H]6C[C@](C)(O)CC[C@@H]6[C@H]5CC[C@]34C)nc2c1` [SA-49], the activity at 10 µM is above 500%.

As to `C[C@@]1(O)CC[C@H]2[C@H](CC[C@@H]3[C@@H]2CC[C@]2(C)[C@@H](C(=O)Cn4nc5ccc(F)cc5n4)CC[C@@H]32)C1` [SA-63], the activity at 10 µM lay within 100 to 500%.

The values are drawn from patent US11261211B2, “19-NOR neuroactive steroids and methods of use thereof” (Sage Therapeutics, Inc., priority 2013, dated 2022).
